Earlier results in patent publication US20260041710A1, “A NOVEL COMBINATION FOR ITS UTILITY IN MICRO AND MACRO VASCULAR COMPLICATIONS” (priority 2022, published 2026).
Read-outs that look alike come from different tables or passages of the source.

How the values were obtained:
[1] = system: 54 Irish patients of diabetic retinopathy; details: single injection

Bevacizumab: full-length antibody that inhibits all isoforms of the VEGF-A family
BCVA (1 month after intravitreal injection, P<0.001): 0.76
BCVA (before intravitreal injection): 0.90
patients with greater than 50 microns reduction of macular thickness [1]: 9.2%
patients with greater than 100 microns reduction of macular thickness [1]: 20.3%
patients with less than 50 microns reduction in macular thickness [1]: 40.7%
patients without any improvement [1]: 29.6%
patients with greater than 50 microns reduction of macular thickness ([1]; of 54 patients): 5 patients
patients with less than 50 microns reduction in macular thickness ([1]; of 54 patients): 22 patients
patients without any improvement ([1]; of 54 patients): 16 patients
